Results reported in the supplement of paper PMC10307832.

What was measured:
Experiment in all cases: relative viability (nuclei count vs DMSO), 5 days (fraction); higher = more cells survive
Dinaciclib + Trametinib = compound: CCc1cnn2c(NCc3ccc[n+]([O-])c3)cc(N3CCCC[C@H]3CCO)nc12 [Dinaciclib] + CC(=O)Nc1cccc(-n2c(=O)n(C3CC3)c(=O)c3c(Nc4ccc(I)cc4F)n(C)c(=O)c(C)c32)c1 [Trametinib] (partner 0.02 µM)
Method in brief: (§1)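 Relative viability divides the nuclei count in treated wells by that in vehicle wells. Lung cancer cell lines were seeded in 1536-well plates, dosed by pin tool the next day, and fixed and stained after 5 days in one step with final 0.05% Triton X-100, 1% formaldehyde and 1 ug/ml Hoechst. Dosing was a single drug or a fixed anchor-drug dose plus five library-drug doses (not always all listed) in √10 steps, and values are medians of duplicate plates imaged at 4×.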

Dinaciclib + Crizotinib = compound: CCc1cnn2c(NCc3ccc[n+]([O-])c3)cc(N3CCCC[C@H]3CCO)nc12 [Dinaciclib] + C[C@@H](Oc1cc(-c2cnn(C3CCNCC3)c2)cnc1N)c1c(Cl)ccc(F)c1Cl [Crizotinib] (partner 1 µM)
Method in brief: as §1

Dinaciclib + Linsitinib = compound: CCc1cnn2c(NCc3ccc[n+]([O-])c3)cc(N3CCCC[C@H]3CCO)nc12 [Dinaciclib] + C[C@]1(O)C[C@@H](c2nc(-c3ccc4ccc(-c5ccccc5)nc4c3)c3c(N)nccn32)C1 [Linsitinib] (partner 1 µM)
Method in brief: as §1

Dinaciclib + Pemetrexed = compound: CCc1cnn2c(NCc3ccc[n+]([O-])c3)cc(N3CCCC[C@H]3CCO)nc12 [Dinaciclib] + Nc1nc2[nH]cc(CCc3ccc(C(=O)N[C@@H](CCC(=O)O)C(=O)O)cc3)c2c(=O)[nH]1 [Pemetrexed] (partner 0.2 µM)
Method in brief: as §1

Dinaciclib + Olaparib = compound: CCc1cnn2c(NCc3ccc[n+]([O-])c3)cc(N3CCCC[C@H]3CCO)nc12 [Dinaciclib] + O=C(c1cc(Cc2n[nH]c(=O)c3ccccc23)ccc1F)N1CCN(C(=O)C2CC2)CC1 [Olaparib] (partner 8 µM)
Method in brief: as §1

| Cell Line | relative viability (Dinaciclib + Trametinib; first compound 0.009487 µM) | relative viability (Dinaciclib + Trametinib; first compound 0.03 µM) | relative viability (Dinaciclib + Trametinib; first compound 0.09487 µM) | relative viability (Dinaciclib + Trametinib; first compound 0.3 µM) | relative viability (Dinaciclib + Crizotinib; first compound 0.009487 µM) | relative viability (Dinaciclib + Crizotinib; first compound 0.03 µM) | relative viability (Dinaciclib + Crizotinib; first compound 0.09487 µM) | relative viability (Dinaciclib + Crizotinib; first compound 0.3 µM) | relative viability (Dinaciclib + Linsitinib; first compound 0.009487 µM) | relative viability (Dinaciclib + Linsitinib; first compound 0.03 µM) | relative viability (Dinaciclib + Linsitinib; first compound 0.09487 µM) | relative viability (Dinaciclib + Linsitinib; first compound 0.3 µM) | relative viability (Dinaciclib + Pemetrexed; first compound 0.009487 µM) | relative viability (Dinaciclib + Pemetrexed; first compound 0.03 µM) | relative viability (Dinaciclib + Pemetrexed; first compound 0.09487 µM) | relative viability (Dinaciclib + Pemetrexed; first compound 0.3 µM) | relative viability (Dinaciclib + Olaparib; first compound 0.009487 µM) | relative viability (Dinaciclib + Olaparib; first compound 0.03 µM) | relative viability (Dinaciclib + Olaparib; first compound 0.09487 µM) | relative viability (Dinaciclib + Olaparib; first compound 0.3 µM) |
| --- | --- | --- | --- | --- | --- | --- | --- | --- | --- | --- | --- | --- | --- | --- | --- | --- | --- | --- | --- | --- |
| LXF-289 | 0.682 | 0.307 | 0.0823 | 0.103 | 0.754 | 0.274 | 0.0748 | 0.0784 | 0.994 | 0.315 | 0.0869 | 0.071 | 0.815 | 0.254 | 0.0816 | 0.0773 | 1.01 | 0.103 | 0.0785 | 0.0985 |
| NCI-H23 | 0.305 | 0.164 | 0.13 | 0.122 | 0.47 | 0.171 | 0.107 | 0.0907 | 0.508 | 0.142 | 0.105 | 0.109 | 0.445 | 0.156 | 0.113 | 0.117 | 0.206 | 0.12 | 0.0827 | 0.101 |
| NCI-H322M | 0.623 | 0.36 | 0.341 | 0.391 | 1.05 | 0.66 | 0.191 | 0.182 | 0.925 | 0.477 | 0.224 | 0.229 | 0.569 | 0.326 | 0.313 | 0.343 | 0.652 | 0.304 | 0.328 | 0.321 |
| NCI-H358 | 0.109 | 0.0821 | 0.0838 | 0.102 | 0.373 | 0.0972 | 0.135 | 0.144 | 0.552 | 0.149 | 0.185 | 0.176 | 0.186 | 0.108 | 0.0948 | 0.0955 | 0.552 | 0.0825 | 0.086 | 0.105 |
| NCI-H441 | 0.42 | 0.156 | 0.137 | 0.114 | 0.595 | 0.134 | 0.0914 | 0.101 | 0.811 | 0.129 | 0.115 | 0.113 | 0.263 | 0.168 | 0.12 | 0.128 | 0.432 | 0.141 | 0.125 | 0.127 |
| NCI-H460 | 0.0986 | 0.0124 | 0.0166 | 0.0082 | 0.688 | 0.0158 | 0.0092 | 0.011 | 0.434 | 0.0071 | 0.0074 | 0.0155 | 0.0617 | 0.0567 | 0.0208 | 0.017 | 0.409 | 0.0325 | 0.0396 | 0.0408 |
| NCI-H520 | 0.506 | 0.104 | 0.0836 | 0.104 | 0.573 | 0.102 | 0.124 | 0.128 | 0.615 | 0.128 | 0.129 | 0.177 | 0.483 | 0.123 | 0.139 | 0.127 | 0.259 | 0.117 | 0.101 | 0.114 |
| NCI-H596 | 0.711 | 0.692 | 0.19 | 0.19 | 1.06 | 0.746 | 0.196 | 0.196 | 0.847 | 0.468 | 0.169 | 0.193 | 0.404 | 0.396 | 0.24 | 0.225 | 0.699 | 0.522 | 0.222 | 0.202 |
| NCI-H647 | 0.379 | 0.192 | 0.0855 | 0.0533 | 0.606 | 0.0725 | 0.0657 | 0.0722 | 0.674 | 0.0709 | 0.0658 | 0.0602 | 0.149 | 0.0819 | 0.0645 | 0.0608 | 0.258 | 0.0359 | 0.0547 | 0.051 |
| NCI-H650 | 0.964 | 0.189 | 0.122 | 0.13 | 0.638 | 0.152 | 0.131 | 0.135 | 0.481 | 0.161 | 0.139 | 0.124 | 0.877 | 0.305 | 0.115 | 0.139 | 0.382 | 0.13 | 0.12 | 0.104 |
| NCI-H661 | 0.512 | 0.162 | 0.17 | 0.161 | 1.02 | 0.474 | 0.145 | 0.166 | 0.452 | 0.184 | 0.144 | 0.2 | 0.798 | 0.365 | 0.214 | 0.151 | 0.664 | 0.227 | 0.148 | 0.147 |
| NCI-H838 | 0.315 | 0.127 | 0.0741 | 0.0706 | 0.791 | 0.182 | 0.0924 | 0.0905 | 0.547 | 0.137 | 0.113 | 0.112 | 0.262 | 0.13 | 0.12 | 0.0879 | 0.431 | 0.101 | 0.0853 | 0.0924 |
| NCI-H1355 | 0.457 | 0.349 | 0.173 | 0.14 | 1.17 | 0.762 | 0.185 | 0.141 | 0.899 | 0.635 | 0.151 | 0.132 | 1.04 | 0.976 | 0.449 | 0.116 | 0.755 | 0.487 | 0.133 | 0.141 |
| NCI-H1437 | 0.403 | 0.212 | 0.134 | 0.135 | 0.918 | 0.41 | 0.0916 | 0.0807 | 0.839 | 0.112 | 0.0939 | 0.0919 | 0.343 | 0.149 | 0.158 | 0.12 | 0.418 | 0.159 | 0.138 | 0.158 |
| NCI-H1651 | 0.785 | 0.668 | 0.173 | 0.072 | 0.941 | 0.685 | 0.188 | 0.0849 | 0.775 | 0.307 | 0.0746 | 0.0549 | 0.596 | 0.51 | 0.112 | 0.0533 | 0.215 | 0.202 | 0.106 | 0.059 |
